From patent US8183281B2, “CXC-chemokine receptor ligands” (Novartis AG, priority 2007, dated 2012)

Molecular target: T1, Human CXCR2 Receptor (Homo sapiens, UniProt P25025)
T1 construct: purchased Biosignal Packard Inc; host or cells: Chinese hamster ovary cells (CHO-K1), membranes
T1 sequence (P25025 1-360): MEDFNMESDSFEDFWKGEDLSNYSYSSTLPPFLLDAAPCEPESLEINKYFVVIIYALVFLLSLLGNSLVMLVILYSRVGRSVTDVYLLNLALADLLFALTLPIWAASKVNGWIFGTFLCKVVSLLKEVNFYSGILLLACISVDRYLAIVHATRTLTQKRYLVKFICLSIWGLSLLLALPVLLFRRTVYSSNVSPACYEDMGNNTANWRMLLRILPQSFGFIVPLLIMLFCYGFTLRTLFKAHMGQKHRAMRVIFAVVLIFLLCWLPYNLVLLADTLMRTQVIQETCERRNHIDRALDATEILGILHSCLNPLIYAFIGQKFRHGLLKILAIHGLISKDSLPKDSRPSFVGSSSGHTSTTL
Assay: [35S]-GTPγS binding assay for human CXCR2 receptor using SPA technology
Type: biochemical
Details: CHO-K1 membranes expressing human CXCR2; 100 nM IL-8 stimulated; read-out: IC50 values in the [35S]-GPTγS binding assay
From the text: [^35S]-GTPγS Binding Assay for Human CXCR2 Receptor Using SPA Technology
[^35S]-GTPγS (with specific activity 1082 Ci/mmol) and wheat germ agglutinin poly vinyl toluene scintillation proximity beads are purchased from Amersham Pharmacia Biotech. The Chinese hamster ovary cell (CHO-K1) membranes expressing human CXCR2 receptors are purchased from Biosignal Packard Inc. All other chemicals are of analytical grade. White non-binding surface 96 well Optiplate™ microplates are obtained from Packard. Recombinant human IL-8 is synthesised, cloned and expressed in Escherichia coli as described previously (Lindley I, et al., Proc. Natl. Acad. Sci., 1988, 85(23):9199). The assay is performed in duplicate in 96 well Optiplate™ microplate in a final volume of 250 μl per well. Compounds are diluted in DMSO (0.5% final concentration) and incubated in 20 mM HEPES buffer pH 7.4 containing 10 mM MgCl2, 100 mM NaCl, 1 mM EDTA plus 100 nM IL-8, 50 μM GDP and […] [^35S]GTPγS per well. SPA beads (1 mg/well final concentration) were pre-mixed with the membranes (10 μg/well final concentration) in assay buffer: 20 mM HEPES buffer pH 7.4 containing 10 mM MgCl2, 100 mM NaCl, 1 mM EDTA. […] The plate is centrifuged and read on Packard TopCoun™ scintillation counter, program [^35S dpm] for 1 min/well. Data are expressed as the % response to 100 nM IL-8 minus basal.

SMILES	IC50 [nM]
CC[C@@H](Nc1c(Nc2ccc(Cl)c(S(=O)(=O)N3CCCC3)c2O)c(=O)c1=O)[C@H]1CC[C@@H](C)O1 [Example 17, 3-[4-Chloro-2-hydroxy-3-(pyrrolidine-1-sulfonyl)-phenylamino]-4-[(R)-1-((2R,5R)-5-methyl-tetrahydrofuran-2-yl)-propylamino]-cyclobut-3-ene-1,2-dione]	58
O=c1c(Nc2ccc(Cl)c(S(=O)(=O)N3CCOCC3)c2O)c(NC2CCSC2)c1=O (centres unmarked) [Example 7, 3-[4-Chloro-2-hydroxy-3-(morpholine-4-sulfonyl)-phenylamino]-4-(tetra-hydro-thiophen-3-ylamino)-cyclobut-3-ene-1,2-dione]	22
